Legend:
[1] = system: SHP77 cells; experiment: AKT/AKT2 siRNA then COTI-2, cell viability by MTT assay, SHP77; type: cell-based, human; settings: SHP 77
Experimental: Cell cultures were maintained under regular tissue culture conditions and passaged 1-2 times a week as recommended by ATCC. For siRNA experiments the manufacturer's conditions for growth and transfection were followed. All siRNA reagents for AKT and AKT2 transfections were obtained from Cell Signaling.
Cells were treated for 48 h with 0-100 ng of AKT or AKT2 siRNA before incubation with COTI-2 at various concentrations (0-500 nM). Following incubation for 48 h, cell viability was determined by MTT assay.

[2] = system: A549; experiment: in vitro IC50 against cancer cell lines, A549; type: cell-based; settings: Homo sapiens, 72 h; A549, NSCLC, 3 days
[3] = in vitro; type: in vitro ADME
Experimental: (§1) Commercially obtained (Rockland Immunochemicals Inc.), non-sterile, species-specific plasma (human, monkey, and dog) with sodium anticoagulant added was utilized for this study. […] Dialysis membrane strips (12-14K MWCO) were presoaked in water and ethanol, rinsed and then kept in buffer until use. Following assembly of the 96-well dialysis apparatus, […] membrane strips placed between the dialysis and sample compartments. The dialysate compartment was loaded with 0.15 ml phosphate buffer was added to the dialysis side of each well. Plasma (unfiltered) was spiked with 10 μM COTI-2 (1% DMSO) and 0.15 ml added to the sample side of each well. After loading, samples are covered and incubated at 37° C. until equilibrium was reached (at least 8 hours). Equal volumes of sample were removed from the buffer and plasma sides of each well, diluted with acetonitrile/buffer and centrifuged. Also at this time an additional sample was prepared (in duplicate) by spiking COTI-2 in plasma at 10 μM, followed by sampling and diluting in acetonitrile/buffer in the same manner as the incubated plasma sample. This calibration sample served as the basis of a recovery determination. The supernatants were analyzed by HPLC-MS/MS and the peak response of COTI-2 in both dialysis and sample compartments, and in the calibration sample, were subsequently determined in two independent replicates. […] The HPLC conditions consist of a binary LC pump with autosampler, a C18 column (2×20 mm), and gradient elution. The percent bound to plasma/serum proteins and percent recovery of the compounds were calculated. The recovery determination serves as an indicator as to the reliability of the calculated protein binding value.

[4] = system: dog plasma; experiment: in vitro; type: in vitro ADME; settings: mixed breeds, 10 µM
Experimental: as §1

[5] = system: human plasma; experiment: in vitro; type: in vitro ADME; settings: 10 µM
Experimental: as §1

[6] = target: CYP2E1 (Homo sapiens, UniProt P05181); experiment: CYP2E1 Inhibition (HLM, chlorzoxanzone substrate)
CYP2E1, sequence (P05181 whole entry): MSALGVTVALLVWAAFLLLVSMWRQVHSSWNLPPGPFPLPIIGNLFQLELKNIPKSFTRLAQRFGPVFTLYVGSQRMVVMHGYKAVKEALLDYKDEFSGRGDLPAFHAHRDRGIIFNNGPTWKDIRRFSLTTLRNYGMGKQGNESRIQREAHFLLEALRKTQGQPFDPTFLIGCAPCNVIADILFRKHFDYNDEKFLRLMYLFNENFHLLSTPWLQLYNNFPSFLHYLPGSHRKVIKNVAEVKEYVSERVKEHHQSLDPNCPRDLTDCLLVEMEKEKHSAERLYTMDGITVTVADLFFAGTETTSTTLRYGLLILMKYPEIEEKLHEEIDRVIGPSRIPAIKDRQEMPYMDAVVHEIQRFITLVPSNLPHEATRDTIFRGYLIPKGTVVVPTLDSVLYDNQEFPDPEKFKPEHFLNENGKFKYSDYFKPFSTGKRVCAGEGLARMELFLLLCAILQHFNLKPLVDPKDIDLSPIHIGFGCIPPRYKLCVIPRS

[7] = system: HeLa cells; experiment: Sensitivity to COTI-2 after PTEN siRNA knockdown (alamar Blue), HeLa; type: cell-based, human; settings: 48 h post-transfection
Experimental: Briefly, HeLa and MCF-7 cells were transfected with 100 nM PTEN siRNA or control non-targeted siRNA at 48 or 144 h prior to exposure to various concentrations of COTI-2.
To assess the capacity of transient siRNA transfection to alter the ability of cells to proliferate in the presence or absence of COTI-2, HeLa or MCF-7 cells (both PTEN-positive) were plated in T25 flasks and transfected 24 h later with PTEN siRNA or non-targeting control siRNA (100 nM in both cases), using Oligofectamine Reagent (Invitrogen) according to the manufacturer's instructions and as previously described (J Pharmacol Exp Ther, 322:123-132). […] PTEN and 18S rRNA mRNA levels were determined by semi-quantitative reverse transcription PCR. […]
For determination of drug sensitivity, HeLa and MCF-7 cells (transfected with PTEN siRNA or control, non-targeted siRNA 48 or 144 hours prior) were re-plated in 96-well plates (VWR, Mississauga, ON, Canada) at 1700 (MCF-7) and 1200 (HeLa) cells per well in a volume of 100 μl of DMEM+10% FBS. […] Cells were then grown for 4 days, and viable cell numbers were assessed by the alamar Blue fluorescence assay using a Wallac Victor^2 multilabel counter (PerkinElmer Wallac, Gaithersburg, Md.). […]

[8] = in vitro; type: in vitro ADME; settings: mixed breeds, rat
[9] = system: rat plasma; experiment: in vitro; type: in vitro ADME; settings: mixed breeds, 10 µM

S=C(N/N=C1/CCCc2cccnc21)N1CCN(c2ccccn2)CC1 [COTI-2]
cell death with total AKT or AKT2 siRNA, presence vs absence of COTI-2 [1]: no significant difference in cell death
IC50 [2]: 6.3 µM
recovery at 10 µM ([3]; human, % Recovery 1st): 6.7%
recovery at 10 µM ([3]; human, % Recovery 2nd): 2.9%
recovery at 10 µM ([3]; human, % Recovery Mean): 4.8%
recovery at 10 µM ([3]; human, percent recovery): < 50%
recovery at 10 µM ([3]; mixed breeds, dog, % Recovery 1st): 42.6%
recovery at 10 µM ([3]; mixed breeds, dog, % Recovery 2nd): 32.8%
recovery at 10 µM ([3]; mixed breeds, dog, % Recovery Mean): 37.7%
recovery at 10 µM ([3]; mixed breeds, dog, percent recovery): < 50%
% Protein Bound 1st [4]: 99.1%
% Protein Bound 2nd [4]: 99.7%
% Protein Bound Mean [4]: 99.4%
percent protein bound [4]: > 99%
% Protein Bound 1st [5]: 99.8%
% Protein Bound 2nd [5]: >99.9%
% Protein Bound Mean [5]: 99.8%
percent protein bound [5]: > 99%
percent inhibition ([6]; CYP2E1, 10 μM): below 50%
% Inhibition of Control Values ([6]; CYP2E1, HLM, chlorzoxazone substrate, 1.0E−05 M): −2%
resistance to COTI-2 after PTEN siRNA transfection [7]: significant increase in the resistance
recovery at 10 µM ([8]; % Recovery 1st): 16.4%
recovery at 10 µM ([8]; % Recovery 2nd): 25.1%
recovery at 10 µM ([8]; % Recovery Mean): 20.7%
recovery at 10 µM ([8]; percent recovery): < 50%
% Protein Bound 1st [9]: >99.9%
% Protein Bound 2nd [9]: >99.9%
% Protein Bound Mean [9]: >99.9%
percent protein bound [9]: > 99%

Source: patent publication US8138191B2, “Inhibitor compounds and cancer treatment methods” (Critical Outcome Technologies Inc., priority 2007, dated 2012)
